Reference: patent publication US9895330B2, “IDO inhibitors” (BRISTOL-MYERS SQUIBB COMPANY, priority 2013, dated 2018)

Molecular target: T1, Human IDO1 (Homo sapiens, UniProt P14902)
T1 construct: expressed in transfected cells; host or cells: HEK293
Assay: IDO Kynurenine Assay with Human IDO1/HEK293 Cells
Format: cell-based
Details: 20 hours incubation, kynurenine absorbance at 490 nm, read-out: HEK human IDO-1 (IC50)
Protocol: IDO Kynurenine Assay with Human IDO1/HEK293 Cells
Human IDO1/HEK293 cells were seeded at 10,000 cells per 50 uL per well with RPMI/phenol red free media contains 10% FBS in a 384-well black wall clear bottom tissue culture plate (Matrix Technologies LLC) 125 nL of certain concentration of compound was then added to each well using ECHO liquid handling systems. The cells were incubated for 20 hours in 37° C. incubator with 5% CO2.
(§1) The compound treatments were stopped by adding Trichloroacetic Acid (Sigma-Aldrich) to a final concentration at 0.2%. The cell plate was further incubated at 50° C. for 30 minute. The equal volume supernatant (20 uL) and 0.2% (w/v) Ehrlich reagent (4-dimethylaminobenzaldehyde, Sigma-Aldrich) in glacial acetic acid were mixed in a new clear bottom 384-well plate. This plate was then incubated at room temperature for 30 minute. The absorbance at 490 nm was measured on Envision plate reader.
Compound IC50 values were calculated using the counts of 500 nM of a reference standard treatment as one hundred percent inhibition, and counts of no compound but DMSO treatment as zero percent inhibition.

T1 sequence (P14902 whole entry): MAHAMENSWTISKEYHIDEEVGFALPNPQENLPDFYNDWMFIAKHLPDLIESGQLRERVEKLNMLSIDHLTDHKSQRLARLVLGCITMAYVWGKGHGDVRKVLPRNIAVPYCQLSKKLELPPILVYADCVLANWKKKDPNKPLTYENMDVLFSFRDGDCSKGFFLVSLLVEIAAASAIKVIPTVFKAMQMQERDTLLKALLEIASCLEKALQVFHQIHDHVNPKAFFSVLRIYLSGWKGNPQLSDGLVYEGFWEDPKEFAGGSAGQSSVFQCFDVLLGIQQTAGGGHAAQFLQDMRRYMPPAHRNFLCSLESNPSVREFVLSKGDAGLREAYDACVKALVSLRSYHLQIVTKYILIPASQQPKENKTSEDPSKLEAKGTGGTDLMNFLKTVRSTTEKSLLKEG

IC50 [nM]	Compound
3.17	CC(C)CN(CC(C)C)c1ccc(-c2ccccc2-c2nnn[nH]2)cc1NC(=O)Cc1ccc(I)cc1 [Example 49, N-(4-(diisobutylamino)-2′-(1H-tetrazol-5-yl)-[1,1′-biphenyl]-3-yl)-2-(4-iodophenyl)acetamide]
120	Cc1ccc(CC(=O)Nc2cc(-c3ccccc3-c3nnn[nH]3)ccc2N(CC(C)C)CC(C)C)cn1 [Example 55]
7440	COC(C)(C)CCN(c1ccc(-c2ccccc2-c2nnn[nH]2)cc1NC(=O)Cc1ccc(C)nc1)C1CCCCC1 [Example 56]
360	CC(C)CN(CC(C)C)c1ccc(-c2ccccc2-c2nnn[nH]2)cc1NC(=O)Cc1ccncc1 [Example 57]
10	Cc1ccc(CC(=O)Nc2cc(-c3ccccc3-c3nnn[nH]3)cc(F)c2N(CC(C)C)C2CCCCC2)cc1 [Example 58]
80	Cc1ccc(CC(=O)Nc2cc(-c3ccccc3C(=O)O)cc(F)c2N(CC(C)C)C2CCCCC2)cc1 [Example 59]
30	Cc1ccc(CC(=O)Nc2cc(-c3cc(F)ccc3C(=O)O)cc(F)c2N(CC(C)C)C2CCCCC2)cc1 [Example 60]
20	CCC(CC)N(CC(C)C)c1ccc(-c2cc(F)ccc2C(=O)O)cc1NC(=O)Cc1ccc(C)cc1 [Example 61]
20	CCC(CC)N(CC(C)C)c1ccc(-c2ccccc2C(=O)O)cc1NC(=O)Cc1ccc(C)cc1 [Example 62]
4.37	CCC(CC)N(CC(C)C)c1ccc(-c2ccccc2-c2nnn[nH]2)cc1NC(=O)Cc1ccc(C)cc1 [Example 63]
40	CC(C)CN(CC(C)C)c1ccc(-c2ccccc2-c2nnn[nH]2)cc1NC(=O)Cc1cc(Br)cs1 [Example 64]
20	CC(C)CN(CC(C)C)c1ccc(-c2ccccc2-c2nnn[nH]2)cc1NC(=O)Cc1cccs1 [Example 65]
20	CC(C)CN(CC(C)C)c1ccc(-c2ccccc2-c2nnn[nH]2)cc1NC(=O)Cc1ccsc1 [Example 66]
20	CC(C)CN(CC(C)C)c1ccc(-c2ccccc2-c2nnn[nH]2)cc1NC(=O)Cc1ccc(Cl)nc1 [Example 67]
4810	CC(C)CN(CCOC(C)C)c1ccc(-c2ccccc2C(=O)O)cc1NC(=O)Cc1ccc(C#N)cc1 [Example 68]
170	CC(C)CN(CCOC(C)C)c1ccc(-c2ccccc2-c2nnn[nH]2)cc1NC(=O)Cc1ccc(C#N)cc1 [Example 69]
2930	CC(C)CN(CCOC(C)C)c1ccc(-c2cc(F)ccc2C(=O)O)cc1NC(=O)Cc1ccc(C#N)cc1 [Example 70]
270	N#Cc1ccc(CC(=O)Nc2cc(-c3ccccc3-c3nnn[nH]3)ccc2N(CCCC(F)(F)F)C2CCCCC2)cc1 [Example 71]
1860	N#Cc1ccc(CC(=O)Nc2cc(-c3cc(F)ccc3C(=O)O)ccc2N(CCCC(F)(F)F)C2CCCCC2)cc1 [Example 72]
2110	N#Cc1ccc(CC(=O)Nc2cc(-c3ccccc3C(=O)O)ccc2N(CCCC(F)(F)F)C2CCCCC2)cc1 [Example 73]
300	Cc1cc(CC(=O)Nc2cc(-c3cc(F)ccc3C(=O)O)ccc2N(CC(C)C)C2CCCCC2)on1 [Example 77]
30	CC(C)CN(c1cc(F)c(-c2ccccc2C(=O)O)cc1NC(=O)Cc1ccc(C#N)cc1)C1CCCCC1 [Example 84]
40	CC(C)CN(c1cc(F)c(-c2ccccc2-c2nnn[nH]2)cc1NC(=O)Cc1ccc(C#N)cc1)C1CCCCC1 [Example 85]

Molecular target: T2, IDO (IFNγ-treated Hela cells) (Homo sapiens, UniProt P14902)
T2 construct: endogenous in cells; host or cells: Hela cells treated with IFNγ (10 ng/ml)
T2 sequence (P14902 whole entry): as above
Assay: IDO Kynurenine Assay with Hela Cells
Format: cell-based
Details: IFNγ 10 ng/ml, 20 hours incubation, kynurenine absorbance at 490 nm, read-out: Hela Cells LLE_IDO_ABS_DR (IC50)
Protocol: IDO Kynurenine Assay with Hela Cells
Hela cells were seeded at 30,000 cells per well in 40 ul RPMI/phenol red free media contains 10% FBS in a 384-well black wall clear bottom tissue culture plate (Matrix Technologies LLC). 270 nl of certain concentration of compound was then added to each well using ECHO liquid handling systems. 40 ul of IFNγ (R&D, 285-IF-100) at final concentration of 10 ng/ml was then added to column 2-24 with media to column 1 as control. The cells were incubated for 20 hours in 37° C. incubator with 5% CO2.
as §1, with “trichloroacetic acid” for “Trichloroacetic Acid”
Compound IC50 values were calculated using the counts of no IFNγ control as one hundred percent inhibition, and counts of no compound but DMSO treatment as zero percent inhibition.

IC50 [nM]	Compound
500	CC(C)CN(CC(C)C)c1ccc(-c2ccccc2-c2nnn[nH]2)cc1NC(=O)CC1CC1 [Example 33]
250	CC(C)CN(CC(C)C)c1ccc(-c2ccccc2-c2nnn[nH]2)cc1NC(=O)Cc1ccc(Oc2ccccc2)cc1 [Example 34]
270	CC(C)CN(CC(C)C)c1ccc(-c2ccccc2-c2nnn[nH]2)cc1NC(=O)CC(F)(F)F [Example 35]
400	Cc1nc(CC(=O)Nc2cc(-c3ccccc3-c3nnn[nH]3)ccc2N(CC(C)C)CC(C)C)cs1 [Example 36]
1280	Cc1noc(C)c1CC(=O)Nc1cc(-c2ccccc2-c2nnn[nH]2)ccc1N(CC(C)C)CC(C)C [Example 37]
2520	CC(C)CN(CC(C)C)c1ccc(-c2ccccc2-c2nnn[nH]2)cc1NC(=O)CN1CCOCC1 [Example 38]
50	CC(C)CN(CC(C)C)c1ccc(-c2ccccc2-c2nnn[nH]2)cc1NC(=O)Cc1cccc(F)c1F [Example 39]
160	Cc1ccc(OCC(=O)Nc2cc(-c3ccccc3-c3nnn[nH]3)ccc2N(CC(C)C)CC(C)C)cc1 [Example 40]
1830	COCCOCC(=O)Nc1cc(-c2ccccc2-c2nnn[nH]2)ccc1N(CC(C)C)CC(C)C [Example 41]
500	CC(C)CN(CC(C)C)c1ccc(-c2ccccc2-c2nnn[nH]2)cc1NC(=O)COc1cccnc1 [Example 42]
5.09	CC(C)CN(CC(C)C)c1ccc(-c2ccccc2-c2nnn[nH]2)cc1NC(=O)Cc1ccc(C#N)cc1 [Example 43]
80	CC(C)CN(CC(C)C)c1ccc(-c2ccccc2-c2nnn[nH]2)cc1NC(=O)Cc1cncc(Br)c1 [Example 44]
470	CC(C)CN(Cc1ccccc1)c1ccc(-c2ccccc2-c2nnn[nH]2)cc1NC(=O)CC(C)(C)C [Example 47, N-(4-(Benzyl(isobutyl)amino)-2′-(2H-tetrazol-5-yl)biphenyl-3-yl)-3,3-dimethylbutanamide]
1610	CC(C)CN(Cc1ccccc1)c1ccc(-c2ccccc2-c2nnn[nH]2)cc1NC(=O)[C@H](O)c1ccccc1 [Example 48, (R)—N-(4-(Benzyl(isobutyl)amino)-2′-(1H-tetrazol-5-yl)biphenyl-3-yl)-2-hydroxy-2-phenylacetamide]
10	CC(C)CN(Cc1ccccc1)c1ccc(-c2ccccc2-c2nnn[nH]2)cc1NC(=O)Cc1ccc(C#N)cc1 [Example 54]
1810	Cc1ccc(CC(=O)Nc2cc(-c3ccccc3-c3nnn[nH]3)ccc2N2CCC(F)(F)C2)cc1 [Example 75]
280	O=C(Cc1ccccc1C(F)(F)F)Nc1cc(-c2ccccc2-c2nnn[nH]2)ccc1-n1cccn1 [Example 76]
4440	CC(C)(C)CC(=O)Nc1cc(-c2ccccc2-c2nnn[nH]2)ccc1-n1cccn1 [Example 78]
2510	N#Cc1ccc(CC(=O)Nc2cc(-c3ccccc3-c3nnn[nH]3)ccc2N2CC3CC2CN3Cc2ccccc2)cc1 (centres unmarked) [Example 79]
3610	CC(C)(C)CC(=O)Nc1cc(-c2ccccc2-c2nnn[nH]2)ccc1N1CC2CC1CN2Cc1ccccc1 (centres unmarked) [Example 82]
8920	O=C(Nc1cc(-c2ccccc2-c2nnn[nH]2)ccc1N1CC2CC1CN2Cc1ccccc1)[C@H](O)c1ccccc1 (some centres unmarked) [Example 83]

Compound	IC50 [nM]
CC(C)CN(CC(C)C)c1ccc(-c2ccccc2-c2nnn[nH]2)cc1NC(=O)Oc1ccc(Cl)cc1 [Example 45, 4-Chlorophenyl (4-(diisobutylamino)-2′-(1H-tetrazol-5-yl)-[1,1′-biphenyl]-3-yl)carbamate]	3900
Cc1ccc(CC(=O)Nc2cc(-c3ccccc3-c3nnn[nH]3)ccc2-n2cccn2)cc1 [Example 46, 2-(4-methylphenyl)-N-[2-(1H-pyrazol-1-yl)-5-[2-(1H-1,2,3,4-tetrazol-5-yl)phenyl]phenyl]acetamide]	230
COc1ccc(OC(=O)Nc2cc(-c3ccccc3-c3nnn[nH]3)ccc2N(CC(C)C)CC(C)C)cc1 [Example 50, 4-methoxyphenyl (4-(diisobutylamino)-2′-(1H-tetrazol-5-yl)-[1,1′-biphenyl]-3-yl)carbamate]	120
CC(C)CN(CC(C)C)c1ccc(-c2ccccc2-c2nnn[nH]2)cc1NC(=O)Oc1ccc2c(c1)OCO2 [Example 51, benzo[d][1,3]dioxol-5-yl (4-(diisobutylamino)-2′-(1H-tetrazol-5-yl)-[1,1′-biphenyl]-3-yl) carbamate]	3910
COc1ccc(OC(=O)Nc2cc(-c3ccccc3-c3nnn[nH]3)ccc2N(CC(C)C)CC(C)C)cc1F [Example 52, 3-fluoro-4-methoxyphenyl (4-(diisobutylamino)-2′-(1H-tetrazol-5-yl)-[1,1′-biphenyl]-3-yl) carbamate]	6560
CC(C)CN(CC(C)C)c1ccc(-c2ccccc2-c2nnn[nH]2)cc1NC(=O)Oc1ccc(OCc2ccccc2)cc1 [Example 53, 4-(benzyloxy)phenyl (4-(diisobutylamino)-2′-(1H-tetrazol-5-yl)-[1,1′-biphenyl]-3-yl)carbamate]	3250
